Test results published in US20130102595A1 (Curis, Inc., priority 2011, published 2013).

Assays:
[1] = target: T1, PI3Kγ (p120γ) (Homo sapiens, UniProt P48736); assay: PI3Kγ ADP-Glo assay; format: biochemical; details: 20 μM PIP2, 10 μM ATP, 90 minutes
T1 construct: His (N); made in house; host or cells: Baculovirus-infected Sf9 cells
Protocol: (d) an In Vitro Assay which Determines the Ability of a Test Compound to Inhibit PI3Kγ.
(§1) Activity of PI3Kγ was measured using ADP-Glo assay from Promega. PI3Kγ, N-terminal His-tagged recombinant full-length human p120γ (GenBank, Accession No. AF327656) was expressed in a Baculovirus infected Sf9 cell expression system. The ADP-Glo assay was performed to measure the amount of ADP generated from ATP hydrolysis coupled with PIP2 phosphorylation by the purified recombinant PI3Kγ (p110δ/p85α). PI3Kγ was incubated with 20 μM PIP2 substrate in the reaction buffer (10 mM Tris-HCl, pH 7.5, 50 mM NaCl, 5 mM MgCl2, 10 μM ATP and 0.5% DMSO) for 90 minutes at room temperature. The ADP generated was then detected by ADP-Glo assay from Promega, a luminescent ADP detection assay. The ADP-Glo assay is performed in two steps; first, after the kinase reaction, ADP-Glo Reagent is added to terminate the kinase reaction and deplete the remaining ATP. Second, the Kinase Detection Reagent is added to simultaneously convert ADP to ATP and allow the newly synthesized ATP to be measured using a luciferase/luciferin reaction.

[2] = target: T2, mTor serine/threonine protein kinase (Homo sapiens, UniProt P42345); assay: mTor kinase radioisotope assay; format: biochemical; details: 70 uM ATP, 40 minutes; read-out: m-TOR IC50
T2 construct: FLAG; made in house; host or cells: Baculovirus expression system in Sf21 cells
Outline: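 FLAG-tagged full-length recombinant human mTor from baculovirus/Sf21, incubated with p70S6K C-terminal fragment (2 mg/ml) and 70 uM ATP plus 33P-ATP tracer in 50 mM HEPES pH 7.5, 3 mM MnCl2, 40 min at room temperature. Phosphoric acid stop, filtermat capture, scintillation counting; IC50 from sigmoidal dose-response fit.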

[3] = target: T3, PI3Kβ (p110β/p85α) (Homo sapiens, UniProt P42338); assay: PI3Kβ ADP-Glo assay; format: biochemical; details: 20 μM PIP2, 10 μM ATP, 90 minutes
T3 construct: His (N); made in house; host or cells: Baculovirus-infected Sf9 cells
T3 sequence (P42338 whole entry): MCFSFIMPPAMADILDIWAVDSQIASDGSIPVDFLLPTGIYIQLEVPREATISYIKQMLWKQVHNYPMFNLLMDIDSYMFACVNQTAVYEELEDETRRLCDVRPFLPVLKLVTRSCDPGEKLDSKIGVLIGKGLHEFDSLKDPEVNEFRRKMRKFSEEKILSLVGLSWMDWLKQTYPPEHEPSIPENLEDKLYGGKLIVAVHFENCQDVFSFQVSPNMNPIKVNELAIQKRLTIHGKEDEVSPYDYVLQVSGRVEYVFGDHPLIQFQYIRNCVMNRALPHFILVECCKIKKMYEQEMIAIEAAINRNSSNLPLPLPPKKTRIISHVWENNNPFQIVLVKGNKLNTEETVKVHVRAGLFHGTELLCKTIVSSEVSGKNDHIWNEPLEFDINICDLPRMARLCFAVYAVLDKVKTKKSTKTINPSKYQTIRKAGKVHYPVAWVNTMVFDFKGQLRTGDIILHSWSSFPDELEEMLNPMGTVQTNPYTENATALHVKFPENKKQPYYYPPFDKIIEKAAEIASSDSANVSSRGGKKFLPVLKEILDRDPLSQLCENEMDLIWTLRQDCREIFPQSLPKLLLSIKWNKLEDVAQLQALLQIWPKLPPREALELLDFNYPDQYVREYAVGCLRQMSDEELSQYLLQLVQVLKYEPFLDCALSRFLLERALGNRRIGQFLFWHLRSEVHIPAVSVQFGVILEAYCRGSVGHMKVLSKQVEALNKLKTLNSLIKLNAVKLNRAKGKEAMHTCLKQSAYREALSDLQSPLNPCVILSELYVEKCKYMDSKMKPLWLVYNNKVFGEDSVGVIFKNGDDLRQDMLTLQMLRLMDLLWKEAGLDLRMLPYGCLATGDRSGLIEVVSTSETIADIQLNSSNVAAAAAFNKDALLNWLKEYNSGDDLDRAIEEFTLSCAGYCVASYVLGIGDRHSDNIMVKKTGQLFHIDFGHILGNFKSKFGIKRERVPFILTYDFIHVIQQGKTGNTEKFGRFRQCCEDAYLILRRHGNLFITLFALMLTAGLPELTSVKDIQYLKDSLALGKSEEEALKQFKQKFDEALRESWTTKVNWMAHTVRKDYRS
T3 sequence (P27986 whole entry partner): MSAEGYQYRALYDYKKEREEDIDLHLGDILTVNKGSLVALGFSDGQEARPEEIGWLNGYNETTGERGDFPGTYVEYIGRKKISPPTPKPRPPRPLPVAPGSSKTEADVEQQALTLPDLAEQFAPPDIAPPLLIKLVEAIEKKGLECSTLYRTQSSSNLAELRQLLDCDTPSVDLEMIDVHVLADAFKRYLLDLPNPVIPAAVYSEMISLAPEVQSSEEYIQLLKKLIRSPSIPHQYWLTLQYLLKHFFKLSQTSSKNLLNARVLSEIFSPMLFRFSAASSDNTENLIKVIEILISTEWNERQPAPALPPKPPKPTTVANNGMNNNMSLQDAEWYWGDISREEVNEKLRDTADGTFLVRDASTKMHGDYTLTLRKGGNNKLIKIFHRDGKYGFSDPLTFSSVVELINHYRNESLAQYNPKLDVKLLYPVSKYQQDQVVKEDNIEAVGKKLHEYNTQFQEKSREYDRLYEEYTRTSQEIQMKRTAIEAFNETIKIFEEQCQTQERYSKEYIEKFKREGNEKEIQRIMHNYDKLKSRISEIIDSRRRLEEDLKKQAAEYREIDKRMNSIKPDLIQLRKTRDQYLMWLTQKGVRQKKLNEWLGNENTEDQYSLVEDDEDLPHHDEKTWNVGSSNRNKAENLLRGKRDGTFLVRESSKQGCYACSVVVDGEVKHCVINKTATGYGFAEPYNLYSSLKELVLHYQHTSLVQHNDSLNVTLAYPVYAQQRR
Protocol: (B) an In Vitro Assay which Determines the Ability of a Test Compound to Inhibit PI3Kβ.
as §1, with “PI3Kβ” for “PI3Kγ”, “[…], a complex of” for “PI3Kγ,”, “p110β” for “p120γ”, “NM_006219) and untagged recombinant full length human p85α (GenBank Accession No. XM—043865) were co-expressed” for “AF327656) was expressed”, “PI3Kβ (p110β/p85α). PI3Kβ” for “PI3Kγ (p110δ/p85α). PI3Kγ”

[4] = test system: HDACs (HeLa cell nuclear extracts); assay: HDAC enzymatic activity, Biomol Color de Lys system; format: biochemical; details: 1 hour, 25° C.
Outline: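 IC50 from sigmoidal fit of developer-terminated fluorescence (ex 350-380/em 440-460 nm). Reaction: 1 h at room temperature (25 °C), HeLa nuclear extract as HDAC source, artificial substrate, buffer of 50 mM Tris/Cl pH 8.0 with 137 mM NaCl, 2.7 mM KCl and 1 mM MgCl2.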

[5] = target: T4, PI3Kα (p110α/p85α) (Homo sapiens, UniProt P42336); assay: PI3Kα ADP-Glo assay; format: biochemical; details: 20 μM PIP2, 10 μM ATP, 30 minutes
T4 construct: GST (N); made in house; host or cells: Baculovirus-infected Sf9 cells
T4 sequence (P42336 whole entry): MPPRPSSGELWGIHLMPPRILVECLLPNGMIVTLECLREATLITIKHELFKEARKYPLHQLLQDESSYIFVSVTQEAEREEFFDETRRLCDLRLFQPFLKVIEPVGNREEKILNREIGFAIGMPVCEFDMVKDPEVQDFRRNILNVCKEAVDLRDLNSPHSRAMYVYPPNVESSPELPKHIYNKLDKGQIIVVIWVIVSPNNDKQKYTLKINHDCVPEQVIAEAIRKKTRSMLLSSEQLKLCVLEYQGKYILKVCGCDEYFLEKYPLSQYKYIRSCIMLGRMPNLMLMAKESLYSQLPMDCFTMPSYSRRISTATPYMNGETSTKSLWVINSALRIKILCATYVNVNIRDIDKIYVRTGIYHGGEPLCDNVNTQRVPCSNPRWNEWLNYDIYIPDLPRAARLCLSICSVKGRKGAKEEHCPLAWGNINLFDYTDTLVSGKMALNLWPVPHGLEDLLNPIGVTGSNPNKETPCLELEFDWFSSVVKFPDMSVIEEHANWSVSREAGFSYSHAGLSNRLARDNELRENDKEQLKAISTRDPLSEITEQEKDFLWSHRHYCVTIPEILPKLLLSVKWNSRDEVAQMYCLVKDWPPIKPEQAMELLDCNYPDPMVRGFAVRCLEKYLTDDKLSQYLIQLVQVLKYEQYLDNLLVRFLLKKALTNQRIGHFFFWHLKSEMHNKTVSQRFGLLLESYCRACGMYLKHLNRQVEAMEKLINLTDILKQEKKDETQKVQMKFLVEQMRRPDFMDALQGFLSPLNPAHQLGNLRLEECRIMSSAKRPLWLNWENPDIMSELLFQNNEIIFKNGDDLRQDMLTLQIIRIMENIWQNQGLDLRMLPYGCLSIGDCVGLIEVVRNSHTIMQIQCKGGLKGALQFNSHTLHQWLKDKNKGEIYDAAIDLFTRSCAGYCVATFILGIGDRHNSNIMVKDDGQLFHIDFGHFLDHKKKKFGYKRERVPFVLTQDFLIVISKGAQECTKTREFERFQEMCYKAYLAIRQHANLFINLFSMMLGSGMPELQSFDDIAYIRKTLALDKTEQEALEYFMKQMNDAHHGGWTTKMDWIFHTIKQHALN
T4 sequence (P27986 whole entry partner): as the sequence (P27986 whole entry partner) above
Outline: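 Luminescent ADP-Glo detection, after depletion of residual ATP, quantified ADP made by PI3Kα phosphorylating 20 μM PIP2 at 10 μM ATP. The kinase step ran 30 min at room temperature in HEPES pH 7.4 with MgCl2, DTT and orthovanadate, using baculovirus/Sf9-expressed full-length p110α/p85α complex.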

[6] = target: T5, PI3Kδ (p110δ/p85α) (Homo sapiens, UniProt O00329); assay: PI3Kδ ADP-Glo assay; format: biochemical; details: 20 μM PIP2, 10 μM ATP, 90 minutes
T5 construct: GST (N); made in house; host or cells: Baculovirus-infected Sf9 cells
T5 sequence (O00329 whole entry): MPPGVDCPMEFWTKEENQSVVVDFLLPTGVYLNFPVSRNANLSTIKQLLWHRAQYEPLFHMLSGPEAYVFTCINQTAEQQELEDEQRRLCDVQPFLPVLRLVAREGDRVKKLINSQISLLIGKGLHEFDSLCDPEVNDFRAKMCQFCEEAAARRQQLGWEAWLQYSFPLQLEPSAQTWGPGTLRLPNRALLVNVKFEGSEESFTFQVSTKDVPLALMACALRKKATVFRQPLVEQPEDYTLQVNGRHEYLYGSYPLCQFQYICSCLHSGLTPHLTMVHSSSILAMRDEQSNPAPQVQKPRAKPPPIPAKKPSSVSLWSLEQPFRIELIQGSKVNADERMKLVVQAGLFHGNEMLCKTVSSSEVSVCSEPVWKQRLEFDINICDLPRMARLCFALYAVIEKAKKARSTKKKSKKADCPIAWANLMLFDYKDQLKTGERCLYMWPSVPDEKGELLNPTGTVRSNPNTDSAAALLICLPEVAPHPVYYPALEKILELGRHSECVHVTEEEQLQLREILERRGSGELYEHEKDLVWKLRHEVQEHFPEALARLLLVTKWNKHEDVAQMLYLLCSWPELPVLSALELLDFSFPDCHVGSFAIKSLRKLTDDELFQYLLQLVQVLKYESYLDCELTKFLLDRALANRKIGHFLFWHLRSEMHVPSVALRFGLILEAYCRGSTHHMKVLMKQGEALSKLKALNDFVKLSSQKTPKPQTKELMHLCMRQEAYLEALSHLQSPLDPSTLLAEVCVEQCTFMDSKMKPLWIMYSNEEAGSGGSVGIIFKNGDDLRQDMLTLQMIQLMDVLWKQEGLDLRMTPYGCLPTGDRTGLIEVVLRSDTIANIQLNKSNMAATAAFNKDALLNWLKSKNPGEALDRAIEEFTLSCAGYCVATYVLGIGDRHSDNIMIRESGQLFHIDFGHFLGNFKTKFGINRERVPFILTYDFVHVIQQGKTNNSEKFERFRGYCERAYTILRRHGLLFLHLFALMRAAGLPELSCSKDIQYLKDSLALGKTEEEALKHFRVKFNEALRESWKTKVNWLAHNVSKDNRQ
T5 sequence (P27986 whole entry partner): as the sequence (P27986 whole entry partner) above
Protocol: (c) an In Vitro Assay which Determines the Ability of a Test Compound to Inhibit PI3Kδ.
as §1, with “PI3Kδ” for “PI3Kγ”, “PI3Kδ, a complex of” for “PI3Kγ,”, “GST-tagged” for “His-tagged”, “p110δ” for “p120γ”, “NM_005026) and untagged recombinant full length human p85α (GenBank Accession No. XM—043865) were co-expressed” for “AF327656) was expressed”

[7] = test system: WiDr; assay: Cell proliferation assay (CellTiter-Glo); format: cell-based; details: Homo sapiens, Colon, 72 hours, 0.5% fetal bovine serum, read-out: antiproliferative activity IC50, WiDr
Outline: (§2)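 Inhibition of growth was assessed as loss of ATP signal; cultures at 5,000–10,000 cells per well received serial compound doses for 72 h with 0.5% FBS, then were lysed for 30 min before luminescence reading.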

[8] = test system: HCT116; assay: Cell proliferation assay (CellTiter-Glo); format: cell-based; details: Homo sapiens, HCT-116; Colon; 72 hours, 0.5% fetal bovine serum; read-out: antiproliferative activity IC50, HCT116
Outline: as §2

[9] = test system: H358; assay: Cell proliferation assay (CellTiter-Glo); format: cell-based; details: Homo sapiens, NCI-H358; NSCLC; 72 hours, 0.5% fetal bovine serum; read-out: antiproliferative activity IC50, H358
Outline: as §2

[10] = test system: T-84; assay: Cell proliferation assay (CellTiter-Glo); format: cell-based; details: Homo sapiens, T84; Colon; 72 hours, 0.5% fetal bovine serum; read-out: antiproliferative activity IC50, T-84
Outline: as §2

[11] = test system: Calu6; assay: Cell proliferation assay (CellTiter-Glo); format: cell-based; details: Homo sapiens, Calu-6; NSCLC; 72 hours, 0.5% fetal bovine serum; read-out: antiproliferative activity IC50, Calu6
Outline: as §2

[12] = test system: OPM-2; assay: Cell proliferation assay (CellTiter-Glo); format: cell-based; details: Homo sapiens, Multiple Myeloma, 72 hours, 0.5% fetal bovine serum, read-out: antiproliferative activity IC50, OPM-2
Outline: as §2

[13] = test system: CFPAC-1; assay: Cell proliferation assay (CellTiter-Glo); format: cell-based; details: Homo sapiens, Pancreas, 72 hours, 0.5% fetal bovine serum, read-out: antiproliferative activity IC50, CFPAC-1
Outline: as §2

[14] = test system: SW1990; assay: Cell proliferation assay (CellTiter-Glo); format: cell-based; details: Homo sapiens, Pancreas, 72 hours, 0.5% fetal bovine serum, read-out: antiproliferative activity IC50, SW1990
Outline: as §2

[15] = test system: H292; assay: Cell proliferation assay (CellTiter-Glo); format: cell-based; details: Homo sapiens, NCI-H292; NSCLC; 72 hours, 0.5% fetal bovine serum; read-out: antiproliferative activity IC50, H292
Outline: as §2

[16] = test system: SWI-116; assay: Cell proliferation assay (CellTiter-Glo); format: cell-based; details: Colon; 72 hours, 0.5% fetal bovine serum; read-out: antiproliferative activity IC50, SWI-116
Outline: as §2

[17] = test system: A549; assay: Cell proliferation assay (CellTiter-Glo); format: cell-based; details: Homo sapiens, NSCLC, 72 hours, 0.5% fetal bovine serum, read-out: antiproliferative activity IC50, A549
Outline: as §2

[18] = test system: H460; assay: Cell proliferation assay (CellTiter-Glo); format: cell-based; details: Homo sapiens, NCI-H460; NSCLC; 72 hours, 0.5% fetal bovine serum; read-out: antiproliferative activity IC50, H460
Outline: as §2

[19] = test system: MiaPaca1; assay: Cell proliferation assay (CellTiter-Glo); format: cell-based; details: Pancreas; 72 hours, 0.5% fetal bovine serum; read-out: antiproliferative activity IC50, MiaPaca1
Outline: as §2

[20] = test system: PANC-1; assay: Cell proliferation assay (CellTiter-Glo); format: cell-based; details: Homo sapiens, Pancreas, 72 hours, 0.5% fetal bovine serum, read-out: antiproliferative activity IC50, PANC-1
Outline: as §2

[21] = test system: SW620; assay: Cell proliferation assay (CellTiter-Glo); format: cell-based; details: Homo sapiens, SW-620; Colon; 72 hours, 0.5% fetal bovine serum; read-out: antiproliferative activity IC50, SW620
Outline: as §2

[22] = test system: CaPan2; assay: Cell proliferation assay (CellTiter-Glo); format: cell-based; details: Homo sapiens, Capan-2; Pancreas; 72 hours, 0.5% fetal bovine serum; read-out: antiproliferative activity IC50, CaPan2
Outline: as §2

[23] = test system: SW403; assay: Cell proliferation assay (CellTiter-Glo); format: cell-based; details: Homo sapiens, SW-403; Colon; 72 hours, 0.5% fetal bovine serum; read-out: antiproliferative activity IC50, SW403
Outline: as §2

[24] = test system: H2122; assay: Cell proliferation assay (CellTiter-Glo); format: cell-based; details: Homo sapiens, NCI-H2122; NSCLC; 72 hours, 0.5% fetal bovine serum; read-out: antiproliferative activity IC50, H2122
Outline: as §2

[25] = test system: OVCAR-5; assay: Cell proliferation assay (CellTiter-Glo); format: cell-based; details: Homo sapiens, Ovarian, 72 hours, 0.5% fetal bovine serum, read-out: antiproliferative activity IC50, OVCAR-5
Outline: as §2

[26] = test system: LN-Cap; assay: Cell proliferation assay (CellTiter-Glo); format: cell-based; details: Homo sapiens, LNCaP; Prostate; 72 hours, 0.5% fetal bovine serum; read-out: antiproliferative activity IC50, LN-Cap
Outline: as §2

[27] = test system: MDA-MB-231; assay: Cell proliferation assay (CellTiter-Glo); format: cell-based; details: Homo sapiens, Breast, 72 hours, 0.5% fetal bovine serum, read-out: antiproliferative activity IC50, MDA-MB-231
Outline: as §2

[28] = test system: CaPan1; assay: Cell proliferation assay (CellTiter-Glo); format: cell-based; details: Homo sapiens, CAPAN-1; Pancreas; 72 hours, 0.5% fetal bovine serum; read-out: antiproliferative activity IC50, CaPan1
Outline: as §2

[29] = test system: PC-3; assay: Cell proliferation assay (CellTiter-Glo); format: cell-based; details: Homo sapiens, Prostate, 72 hours, 0.5% fetal bovine serum, read-out: antiproliferative activity IC50, PC-3
Outline: as §2

[30] = test system: glioblastoma xenografts; details: oral dosage; cited from earlier work

T1 sequence (P48736 whole entry): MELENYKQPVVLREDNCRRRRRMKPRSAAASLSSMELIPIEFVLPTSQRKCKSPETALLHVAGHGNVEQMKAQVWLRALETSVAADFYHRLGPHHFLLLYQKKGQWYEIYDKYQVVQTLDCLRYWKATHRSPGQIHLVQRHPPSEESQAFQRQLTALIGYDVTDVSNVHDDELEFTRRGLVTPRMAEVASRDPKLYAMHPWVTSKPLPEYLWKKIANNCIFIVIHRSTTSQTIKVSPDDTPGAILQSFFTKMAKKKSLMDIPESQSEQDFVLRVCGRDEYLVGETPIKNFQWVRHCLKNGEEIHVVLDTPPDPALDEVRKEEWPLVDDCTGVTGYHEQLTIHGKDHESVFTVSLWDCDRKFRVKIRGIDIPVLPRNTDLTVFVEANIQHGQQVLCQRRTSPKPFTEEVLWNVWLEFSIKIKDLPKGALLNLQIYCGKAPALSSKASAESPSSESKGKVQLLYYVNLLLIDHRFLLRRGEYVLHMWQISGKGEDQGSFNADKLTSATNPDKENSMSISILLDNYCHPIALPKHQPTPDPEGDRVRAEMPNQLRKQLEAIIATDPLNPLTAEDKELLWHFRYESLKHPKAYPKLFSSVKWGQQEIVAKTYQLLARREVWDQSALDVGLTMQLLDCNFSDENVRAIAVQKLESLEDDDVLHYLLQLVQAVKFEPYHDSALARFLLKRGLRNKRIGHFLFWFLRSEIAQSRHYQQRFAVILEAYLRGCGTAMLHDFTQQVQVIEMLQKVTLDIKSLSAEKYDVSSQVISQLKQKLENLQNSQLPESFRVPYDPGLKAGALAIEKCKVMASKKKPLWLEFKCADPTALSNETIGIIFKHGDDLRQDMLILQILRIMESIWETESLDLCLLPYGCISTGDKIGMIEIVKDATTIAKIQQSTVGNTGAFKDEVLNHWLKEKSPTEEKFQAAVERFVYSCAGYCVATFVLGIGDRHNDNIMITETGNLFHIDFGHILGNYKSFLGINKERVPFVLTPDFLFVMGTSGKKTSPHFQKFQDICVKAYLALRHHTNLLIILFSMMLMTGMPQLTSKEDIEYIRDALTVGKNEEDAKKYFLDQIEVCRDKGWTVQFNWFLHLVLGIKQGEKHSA

Compound	IC50 [1] [nM]	melting point [°C]	IC50 [2] [µM]	IC50 [3] [nM]	IC50 [4] [nM]	IC50 [5] [nM]	IC50 [6] [nM]	IC50 [7] [nM]	IC50 [8] [nM]	IC50 [9] [nM]	IC50 [10] [nM]	IC50 [11] [nM]	IC50 [12] [nM]	IC50 [13] [nM]	IC50 [14] [nM]	IC50 [15] [nM]	IC50 [16] [nM]	IC50 [17] [nM]	IC50 [18] [nM]	IC50 [19] [nM]	also measured
O=C(NO)c1cnc(N2CCN(Cc3cc4nc(-c5cccc6[nH]ncc56)nc(N5CCOCC5)c4s3)CC2)nc1 [Compound 14]	< 100	209 to 221	1 to 10	< 100	< 100	< 100	100 to 1000	–	–	–	–	–	–	–	–	–	–	–	–	–	–
O=C(NO)c1cnc(NCc2cc3nc(-c4cccc5[nH]ncc45)nc(N4CCOCC4)c3s2)nc1 [Compound 53, 2-((2-(1H-indazol-4-yl)-4-morpholinothieno[3,2-d]pyrimidin-6-yl)methylamino)-N-hydroxypyrimidine-5-carboxamide]	< 100	234 to 237	–	< 100	< 100	< 100	< 100	–	–	–	–	–	–	–	–	–	–	–	–	–	–
COc1ccc(-c2nc(N3CCOCC3)c3sc(CN(C)c4ncc(C(=O)NO)cn4)cc3n2)cn1 [Compound 236, N-Hydroxy-2-(((2-(6-methoxypyridin-3-yl)-4-morpholinothieno[3,2-d]pyrimidin-6-yl)methyl)(methyl)amino)pyrimidine-5-carboxamide]	–	–	1 to 10	–	< 100	–	–	10 to 100	< 10	< 10	10 to 100	10 to 100	< 10	10 to 100	< 10	< 10	< 10	10 to 100	10 to 100	10 to 100	IC50 [20]: 10 to 100 nM; IC50 [21]: < 10 nM; IC50 [22]: 10 to 100 nM; IC50 [23]: < 10 nM; IC50 [24]: < 10 nM
CS(=O)(=O)N1CCN(Cc2cc3nc(-c4cccc5[nH]ncc45)nc(N4CCOCC4)c3s2)CC1 [GDC-0941, reference compound]	–	–	–	–	–	–	–	100 to 1000	100 to 1000	1000 to 10000	1000 to 10000	1000 to 10000	100 to 1000	1000 to 10000	1000 to 10000	1000 to 10000	100 to 1000	100 to 1000	100 to 1000	1000 to 10000	IC50 [25]: 100 to 1000 nM; IC50 [26]: 100 to 1000 nM; IC50 [27]: > 10 µM; IC50 [20]: 1000 to 10000 nM; IC50 [28]: 1 to 10 µM; IC50 [21]: 100 to 1000 nM; IC50 [22]: 1000 to 10000 nM; IC50 [23]: 1000 to 10000 nM; IC50 [24]: 1000 to 10000 nM; IC50 [29]: 1 to 10 µM; effect in glioblastoma xenografts in vivo [30]: tumor suppression
